Results: patent US20090069300A1, “ISOQUINOLINYL AND ISOINDOLINYL DERIVATIVES AS HISTAMINE-3 ANTAGONISTS” (Wyeth, priority 2007, published 2009)
pKi: −log10 of the molar value. Counter-ions that a name gives are not always drawn.

Target: T1, Human Histamine H3 Receptor (Homo sapiens, UniProt Q9Y5N1)
T1 construct: expressed in transfected cells; host or cells: HEK293T (stably transfected; membranes prepared from the cells)
Test: Methyl histamine binding in human histamine H3 receptor cell line
Settings: not given
Description: Evaluation of Methyl Histamine Binding in Human Histamine H3 Receptor Cell Line
The affinity of test compounds for the histamine 3 (H3) receptor is evaluated in the following manner. […] Cells are scraped from the plate, transferred to centrifuge tubes, washed one time in PBS by centrifugation in a Sorvall RT7 Plus centrifuge (2000 rpm 10 minutes, 4° C.). The resulting pellets are stored at −80° C. until ready for use. Cells are re-suspended in buffer (50 mM Tris pH=7.5) and placed in a Dounce homogenizer, douncing ten times to homogenize cells. The homogenate is spun down by centrifugation (Sorvall RT7 Plus, 1800 rpm 10 minutes, 4° C.). The supernatant is placed in a Corex tube and spun down by centrifugation (Sorvall RC 5c Plus, 17,000 rpm 20 minutes, 4° C.). The pellet is resuspended in buffer (50 mM Tris, pH 7.5). Protein concentration (ug/ul) is determined using the Micro-BCA Protein Determination. The binding assay is set up in a 96 well microtiter plate in a total volume of 250 uL. Non-specific binding is determined in the presence of 10 uM clobenpropit. The final radioligand concentration is 1 nM. The test compound is serially diluted using the Beckman Biomek2000 to a final approximate range of 100 uM to 100 pM. Membranes are suspended in buffer, homogenized in 2 bursts of ten seconds using a Vitris mechanical homogenizer set at power setting 5. Ten μg of membranes are added to each well. Following a one hour incubation at 30° C., the reaction is terminated by the addition of ice cold buffer and rapid filtration with a Packard Filtermate Harvester through a GF/B filter pre-soaked with 1% PEI for one hour. The plate is dried for one hour at 37° C. and 60 μL Microscint Scintillant is added to each well. The CPM per well is measured on a Packard Top Count NXT. Ki values are determined in nM. […] CPM values are expressed as % specific binding and plotted vs compound concentration. A curve is fitted using a four-parameter logistic fit and the IC50 value is determined. The Ki is calculated from this using the Cheng-Prusoff equation: […]=IC50/1+(L/Kd) where L=concentration of free radioligand used in the assay, and Kd is the dissociation constant of the radioligand for the receptor. L is determined for each experiment by counting an aliquot of the diluted radioligand (corresponding to that added to each well) and the Kd has previously been determined under identical conditions for this cell line/radioligand.

T1 sequence (Q9Y5N1 whole entry): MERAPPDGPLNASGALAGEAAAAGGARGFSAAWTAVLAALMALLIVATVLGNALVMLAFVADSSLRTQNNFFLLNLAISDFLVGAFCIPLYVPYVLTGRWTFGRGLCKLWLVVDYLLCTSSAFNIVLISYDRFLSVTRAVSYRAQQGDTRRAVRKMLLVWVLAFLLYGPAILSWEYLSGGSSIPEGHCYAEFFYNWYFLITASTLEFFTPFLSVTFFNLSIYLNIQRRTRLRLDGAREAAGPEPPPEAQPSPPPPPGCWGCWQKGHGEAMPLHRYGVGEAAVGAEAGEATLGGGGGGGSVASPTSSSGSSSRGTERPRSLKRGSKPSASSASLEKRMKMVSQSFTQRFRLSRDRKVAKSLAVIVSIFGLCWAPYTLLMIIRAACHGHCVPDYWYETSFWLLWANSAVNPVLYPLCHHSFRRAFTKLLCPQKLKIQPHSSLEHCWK

Structure (SMILES) | pKi
O=C(NCCCl)c1ccc(-c2ccc3c(c2)CCN(CCN2CCCC2)C3=O)cc1 [Example 123, N-(2-chloroethyl)-4-[1-oxo-2-(2-pyrrolidin-1-ylethyl)-1,2,3,4-tetrahydroisoquinolin-6-yl]benzamide] | > 8.00

Same assay, conditions: read-out: H3 Binding Ki

Structure (SMILES) | pKi
N#Cc1ccc(Oc2ccc3c(c2)CCN(CCN2CCCC2)C3=O)cn1 [Example 52, 5-{[1-oxo-2-(2-pyrrolidin-1-ylethyl)-1,2,3,4-tetrahydroisoquinolin-6-yl]oxy}pyridine-2-carbonitrile] | > 8.00
CCN(C)C(=O)c1ccc(-c2ccc3c(c2)CCN(CCN2CCCC2)C3=O)cc1 [Example 124, N-ethyl-N-methyl-4-[1-oxo-2-(2-pyrrolidin-1-ylethyl)-1,2,3,4-tetrahydroisoquinolin-6-yl]benzamide] | > 8.00
CN(C)C(=O)c1ccc(-c2ccc3c(c2)CCN(CCN2CCCC2)C3=O)c(F)c1 [Example 137, 3-fluoro-N,N-dimethyl-4-[1-oxo-2-(2-pyrrolidin-1-ylethyl)-1,2,3,4-tetrahydroisoquinolin-6-yl]benzamide] | > 8.00
O=C(c1ccc(Oc2ccc3c(c2)CCN(CCN2CCCC2)C3=O)cc1)N1CCCC1 [Example 98, 6-[4-(pyrrolidin-1-ylcarbonyl)phenoxy]-2-(2-pyrrolidin-1-ylethyl)-3,4-dihydroiso-quinolin-1(2H)-one] | > 8.00
CNC(=O)c1ccc(-c2ccc3c(c2)CN(CCN2CCC[C@H]2C)C3=O)cc1 [Example 118, N-methyl-4-(2-{2-[(2R)-2-methylpyrrolidin-1-yl]ethyl}-1-oxo-2,3-dihydro-1H-isoindol-5-yl)benzamide] | 7.00 to 7.30
C[C@@H]1CCCN1CCN1CCc2cc(-c3ccc(F)cc3)ccc2C1=O [Example 40, 6-(4-fluorophenyl)-2-{2-[(2R)-2-methylpyrrolidin-1-yl]ethyl}-3,4-dihydroisoquinolin-1(2H)-one] | > 8.00
O=C1c2ccc(-c3cccc(F)c3)cc2CCN1CCN1CCCC1 [Example 18, 6-(3-fluorophenyl)-2-(2-pyrrolidin-1-ylethyl)-3,4-dihydroisoquinolin-1(2H)-one] | 7.60 to 8.00
O=C1c2ccc(-n3cnc4ccccc43)cc2CCN1CCN1CCCC1 [Example 108, 6-(1H-benzimidazol-1-yl)-2-(2-pyrrolidin-1-ylethyl)-3,4-dihydroisoquinolin-1(2H)-one Fumarate Salt] | > 8.00
C[C@@H]1CCCN1CCN1CCc2ccc(-c3ccc(C(=O)N4CCCC4)cc3)cc2C1=O [Example 86, 2-{2-[(2R)-2-methylpyrrolidin-1-yl]ethyl}-7-[4-(pyrrolidin-1-ylcarbonyl)phenyl]-3,4-dihydroisoquinolin-1(2H)-one] | > 8.00
NC(=O)c1ccc(-c2ccc3c(c2)CCN(CCN2CCCC2)C3=O)cc1 [Example 67, 4-[1-oxo-2-(2-pyrrolidin-1-ylethyl)-1,2,3,4-tetrahydroisoquinolin-6-yl]benzamide] | > 8.00
O=C1c2ccc(-c3ccc(F)c(F)c3)cc2CCN1CCN1CCCC1 [Example 17, 6-(3,4-difluorophenyl)-2-(2-pyrrolidin-1-ylethyl)-3,4-dihydroisoquinolin-1(2H)-one] | > 8.00
CCNC(=O)c1ccc(-c2ccc3c(c2)CCN(CCN2CCCC2)C3=O)c(F)c1 [Example 140, N-ethyl-3-fluoro-4-[1-oxo-2-(2-pyrrolidin-1-ylethyl)-1,2,3,4-tetrahydroisoquinolin-6-yl]benzamide] | > 8.00
CCNC(=O)c1ccc(-c2ccc3c(c2)CCN(CCN2CCC[C@H]2C)C3=O)cc1 [Example 75, N-ethyl-4-(2-{2-[(2R)-2-methylpyrrolidin-1-yl]ethyl}-1-oxo-1,2,3,4-tetrahydroisoquinolin-6-yl)benzamide] | > 8.00
COCCNC(=O)c1ccc(-c2ccc3c(c2)CCN(CCN2CCCC2)C3=O)cc1 [Example 69, N-(2-methoxyethyl)-4-[1-oxo-2-(2-pyrrolidin-1-ylethyl)-1,2,3,4-tetrahydroisoquinolin-6-yl]benzamide] | > 8.00
COC1CCN(C(=O)c2ccc(-c3ccc4c(c3)CCN(CCN3CCCC3)C4=O)cc2)C1 (centres unmarked) [Example 127, 6-{4-[(3-methoxypyrrolidin-1-yl)carbonyl]phenyl}-2-(2-pyrrolidin-1-ylethyl)-3,4-dihydroisoquinolin-1(2H)-one] | > 8.00
C[C@H]1CCCN1CCN1CCc2cc(-c3ccc(F)cc3)ccc2C1=O [Example 39, 6-(4-fluorophenyl)-2-{2-[(2S)-2-methylpyrrolidin-1-yl]ethyl}-3,4-dihydroiso-quinolin-1(2H)-one hydrochloride] | 7.60 to 8.00
C[C@@H]1CCCN1CCN1CCc2cc(-n3cnc4ccccc43)ccc2C1=O [Example 154, (R)-6-(1H-benzo[d]imidazol-1-yl)-2-(2-(2-methylpyrrolidin-1-yl)ethyl)-3,4-dihydroisoquinolin-1(2H)-one hydrochloride] | > 8.00
CNC(=O)c1ccc(Oc2ccc3c(c2)CCN(CCN2CCCC2)C3=O)nc1 [Example 101, N-Methyl-6-(1-oxo-2-(2-(pyrrolidin-1-yl)ethyl)-1,2,3,4-tetrahydro-isoquinolin-6-yloxy)nicotinamide hydrochloride] | 7.30 to 7.60
C[C@H]1CCCN1C(=O)c1ccc(-c2ccc3c(c2)CCN(CCN2CCCC2)C3=O)cc1 [Example 81, 6-(4-{[(2S)-2-methylpyrrolidin-1-yl]carbonyl}phenyl)-2-(2-pyrrolidin-1-ylethyl)-3,4-dihydroisoquinolin-1(2H)-one] | > 8.00
C[C@@H]1CCCN1CCN1CCc2cc(OCc3ccc(C#N)cc3)ccc2C1=O [Example 120, (R)-4-((2-(2-(2-Methylpyrrolidin-1-yl)ethyl)-1-oxo-1,2,3,4-tetra-hydroisoquinolin-6-yloxy)methyl)benzonitrile hydrochloride] | > 8.00

Further lines, results first:

pKi | Structure (SMILES)
7.60 to 8.00 | O=C1c2ccc(-c3ccc4c(c3)OCO4)cc2CCN1CCN1CCCC1 [Example 21, 6-(1,3-benzodioxol-5-yl)-2-(2-pyrrolidin-1-ylethyl)-3,4-dihydroisoquinolin-1(2H)-one]
> 8.00 | CNC(=O)c1ccc(-c2ccc3c(c2)CCN(CCN2CCCC2)C3)cc1 [Example 181, N-methyl-4-[2-(2-pyrrolidin-1-ylethyl)-1,2,3,4-tetrahydroisoquinolin-6-yl]benzamide]
> 8.00 | O=C(NC1CCC1)c1ccc(-c2ccc3c(c2)CCN(CCN2CCCC2)C3=O)cc1 [Example 63, N-cyclobutyl-4-[1-oxo-2-(2-pyrrolidin-1-ylethyl)-1,2,3,4-tetrahydroisoquinolin-6-yl]benzamide]
> 8.00 | CNC(=O)c1ccc(-c2ccc3c(c2)CCN(CCCN2CCCC2)C3=O)cc1 [Example 141, N-methyl-4-[1-oxo-2-(3-pyrrolidin-1-ylpropyl)-1,2,3,4-tetrahydroisoquinolin-6-yl]benzamide]
7.60 to 8.00 | O=C(c1ccc2c(c1)CCN(CCN1CCCC1)C2=O)N1CCCC1 [Example 38, 6-(pyrrolidin-1-ylcarbonyl)-2-(2-pyrrolidin-1-ylethyl)-3,4-dihydroisoquinolin-1(2H)-one hydrochloride]
> 8.00 | CCN(CC)C(=O)c1ccc(-c2ccc3c(c2)CCN(CCN2CCC[C@H]2C)C3=O)cc1 [Example 65, N,N-diethyl-4-(2-{2-[(2R)-2-methylpyrrolidin-1-yl]ethyl}-1-oxo-1,2,3,4-tetrahydroisoquinolin-6-yl)benzamide]
> 8.00 | O=C(NC1CC1)c1ccc(-c2ccc3c(c2)CCN(CCN2CCCC2)C3=O)cc1 [Example 57, N-cyclopropyl-4-[1-oxo-2-(2-pyrrolidin-1-ylethyl)-1,2,3,4-tetrahydroisoquinolin-6-yl]benzamide]
> 8.00 | CN(C)C(=O)c1cc(-c2ccc3c(c2)CCN(CCN2CCCC2)C3=O)ccc1F [Example 132, 2-fluoro-N,N-dimethyl-5-[1-oxo-2-(2-pyrrolidin-1-ylethyl)-1,2,3,4-tetrahydroisoquinolin-6-yl]benzamide]
7.60 to 8.00 | N#Cc1ccc(Oc2ccc3c(c2)CCN(CCN2CCCC2)C3=O)nc1 [Example 47, 6-{[1-oxo-2-(2-pyrrolidin-1-ylethyl)-1,2,3,4-tetrahydroisoquinolin-6-yl]oxy}nicotinonitrile]
> 8.00 | O=C(NCc1cccs1)c1ccc(-c2ccc3c(c2)CCN(CCN2CCCC2)C3=O)cc1 [Example 121, 4-[1-oxo-2-(2-pyrrolidin-1-ylethyl)-1,2,3,4-tetrahydroisoquinolin-6-yl]-N-(2-thienylmethyl)benzamide]
> 8.00 | COc1ccc(-c2ccc3c(c2)CCN(CCN2CCCC2)C3=O)cc1 [Example 23, 6-(4-methoxyphenyl)-2-(2-pyrrolidin-1-ylethyl)-3,4-dihydroisoquinolin-1(2H)-one]
